Results: the supplement of paper PMC5580409

System: Plasmodium falciparum 3D7
Test: pEC50, asexual blood-stage growth inhibition
Details: 72 h
Protocol: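 Held-out test set measured in the Guy lab in 2014 with the same procedure as the primary St. Jude screen. P. falciparum 3D7 blood-stage culture (2% hematocrit, 1% parasitemia) was treated with compound for 72 h at 37 °C, and growth was read by SYBR Green I fluorescence. EC50 came from a four-parameter Hill fit over a 10-point dilution series […].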

Compound	pEC50
Cc1ccccc1NCC(O)Cn1c2ccc(Cl)cc2c2cc(Cl)ccc21 (stereo not given)	5.44
CC(=O)Nc1ccc(-c2nc3cc(-c4nc5cc(NC(C)=O)ccc5[nH]4)ccc3[nH]2)cc1	6.5
COc1ccc(CN2CCCn3c4c(c5cc(C)ccc53)CCCC42)c(OC)c1 (stereo not given)	< 4.82
CCOc1cc(C2C(C(=O)OCCOc3ccccc3)=C(C)NC3=C2C(=O)CC(c2ccc(Cl)cc2)C3)ccc1O (stereo not given)	< 4.82
Oc1ccc(Br)cc1CN1CCN(c2cccc(Cl)c2)CC1	6.06
C=CCN1C(=O)N(c2ccc(Cl)cc2)C(=O)C1CC(=O)Nc1ccc(F)cc1 (stereo not given)	< 4.82
CCN1/C(=C/c2sc3ccc(O)cc3[n+]2CC)C=Cc2cc(C)ccc21	6.3
CCCCn1c(=N)n(CC(O)c2ccc(OC)cc2)c2ccccc21 (stereo not given)	< 4.82
O=S(=O)(c1cccc(C(F)(F)F)c1)N1CCC(CO)(Cc2cccc(C(F)(F)F)c2)CC1	5.68
OC(CNc1ccccc1)Cn1c2ccccc2c2ccccc21 (stereo not given)	< 4.82
CN(C)c1ccc(NC(=O)/C=C/c2ccccc2Cl)cc1	4.99
c1cc(-c2nc3ccccc3[nH]2)nc(-c2nc3ccccc3[nH]2)c1	5.39
CCOC(=O)C1=C(C)NC2=C(C(=O)CC(c3ccc(Cl)cc3)C2)C1c1cccc(OC)c1OC (stereo not given)	< 4.82
COc1ccc(C2CC(=O)NC3=C2C(=O)CC(c2ccc(OC)c(OC)c2)C3)c(OC)c1 (stereo not given)	< 4.82
Cc1cc(Nc2ccccc2C(F)(F)F)nc(-n2nc(C)cc2C)n1	< 4.82
Cc1ccc(NC(=O)/C=C/c2ccccc2Cl)cc1	5.46
COc1ccc(NCC(O)Cn2c3ccc(Cl)cc3c3cc(Cl)ccc32)c(OC)c1 (stereo not given)	< 4.82
Cc1ccccc1OCC(O)CNC1CCCCC1 (stereo not given)	< 4.82
CN1CCN([C@@H]2CCN(Cc3cc(Cl)ccc3O)C[C@H]2O)CC1	< 4.82
Cc1ccc(OCC(O)CNC2CCCCC2)cc1 (stereo not given)	5.83
N=c1n(CCN2CCOCC2)c2ccccc2n1CC(O)COc1ccccc1 (stereo not given)	< 4.82
CCN(CC)c1nc(Nc2ccc(O)cc2)nc(Nc2cc(C)ccc2C)n1	< 4.82
Cc1ccc(NCC(O)Cn2c3ccccc3c3ccccc32)cc1 (stereo not given)	< 4.82
COc1ccccc1-c1c(C(F)(F)F)oc2c(CN(C)C3CCCCC3)c(O)ccc2c1=O	< 4.82
CCOC(=O)c1ccc(NC(=O)CC2C(=O)N(c3ccc(OC)cc3)C(=O)N2CCC(C)C)cc1 (stereo not given)	< 4.82
O=C(Nc1ccc(-c2nc3ccccc3[nH]2)cc1)c1cncc(Br)c1	5.35
CC1CCC(C(C)C)C(OCC(O)CNC2CCCC2)C1 (stereo not given)	5.46

Compound	pEC50
O=C(Nc1cc(Cl)ccc1O)c1cnn2c1NC(c1ccc(Br)cc1)CC2C(F)(F)F (stereo not given)	< 4.82
CCCCN(CCCC)CC(O)COc1ccccc1[N+](=O)[O-] (stereo not given)	7.13
CCOC(=O)c1ccc(NC(=O)/C=C/c2ccccc2Cl)cc1	< 4.82
CCn1c(CSCc2ccc(F)cc2)nnc1SCC(=O)Nc1cc(C(F)(F)F)ccc1Cl	< 4.82
CCn1c2ccccc2c2cc(CNC3CCCCC3)ccc21	< 4.82
Cc1onc(-c2c(Cl)cccc2Cl)c1C(=O)Nc1cc(Cl)ccc1Cl	6.54
COc1cc(CNn2nnnc2N)cc(Cl)c1OC	< 4.82
CCOC(=O)C1=C(C)NC2=C(C(=O)CC(c3ccc(Cl)cc3)C2)C1c1ccc(OC)cc1 (stereo not given)	5.93
CCOc1cc(C2C(C(=O)OC(C)CC)=C(C)NC3=C2C(=O)CC(c2ccc(Cl)cc2)C3)ccc1O (stereo not given)	< 4.82
CC(C)c1ccc(/C=C/C(=O)Nc2cccc(F)c2)cc1	< 4.82
O=C(Nc1ccccc1)c1ccccc1OCC(O)CN(Cc1ccccc1)Cc1ccccc1 (stereo not given)	6.31
N=c1n(CCN2CCCCC2)c2ccccc2n1CC(O)COc1ccc(Cl)cc1 (stereo not given)	5.33
O=C(Nc1ccc(-c2nc3cc(-c4nc5cc(NC(=O)c6cccc7ccccc67)ccc5[nH]4)ccc3[nH]2)cc1)c1cccc2ccccc12	< 4.82
CCOC(=O)c1cnc2ccccc2c1Nc1ccc2c(c1)OCCO2	< 4.82
CCOC(=O)C1=C(C)NC2=C(C(=O)CC(c3ccco3)C2)C1c1ccc(OC)c(OC)c1 (stereo not given)	< 4.82
OC(CN1CCN(Cc2ccccc2)CC1)Cn1c2ccc(Cl)cc2c2cc(Cl)ccc21 (stereo not given)	< 4.82
N=c1n(CCN2CCCCC2)c2ccccc2n1CC(O)c1cccc2ccccc12 (stereo not given)	5.49
CN(C)CCCn1c(=N)n(CC(O)c2ccc(Br)cc2)c2ccccc21 (stereo not given)	5.54
C=CCn1c(=N)n(CC(O)c2ccc(Br)cc2)c2ccccc21 (stereo not given)	5.62
Cc1cccc(Oc2c(C(F)(F)F)oc3c(CN4CCN(C)CC4)c(O)ccc3c2=O)c1	5.27
COc1c(O)ccc(/C=N/NC(=O)C2CC2(c2ccccc2)c2ccccc2)c1[N+](=O)[O-] (stereo not given)	< 4.82
Cc1ccc(C(=O)Cn2c(=N)n(CCN3CCCCC3)c3ccccc32)cc1	< 4.82
CCN(CC)CC(O)COc1ccc(CNC2CCCCC2)cc1OC (stereo not given)	< 4.82
O=C(CC1C(=O)N(c2cccc(F)c2)C(=O)N1CCc1ccccc1F)Nc1cccc(F)c1 (stereo not given)	< 4.82
OCCC1CN(Cc2cc(Cl)ccc2O)CCN1C1CCCCC1 (stereo not given)	< 4.82
COC(=O)[C@@H](NC(=O)c1cn(C2CCCCC2)cc(C(=O)NC(C)(C)C)c1=O)c1ccccc1	< 4.82
OC(CNC1CC1)Cn1c2ccccc2c2ccccc21 (stereo not given)	< 4.82

Compound	pEC50
O=c1c(Oc2ccccc2)c(C(F)(F)F)oc2c(CN3CCCCC3)c(O)ccc12	< 4.82
Cc1ccc(C)c(OCC(O)CNC2CCCC2)c1 (stereo not given)	< 4.82
Cc1cccc2c(C(=O)N3CCN(C/C=C/c4ccccc4)CC3)cc(-c3cccnc3)nc12	< 4.82
COc1ccccc1-c1c(C(F)(F)F)oc2c(CN3CCOCC3)c(O)ccc2c1=O	< 4.82
CCN1\C(=C/C=C(C)/C=C/c2sc3ccccc3[n+]2CC)Sc2ccccc21	5.34
CC(C)(C)NCC(O)Cn1c2ccccc2c2ccccc21 (stereo not given)	5.21
CCOc1ccc(-c2nonc2NC(=O)c2ccco2)cc1	6.71
O=C1CC(c2ccc(Cl)c([N+](=O)[O-])c2)C2=C(CC(c3cccs3)CC2=O)N1 (stereo not given)	< 4.82
C=CCn1c(=N)n(CC(O)c2cccc(Br)c2)c2ccccc21 (stereo not given)	5.66
O=C1CC(c2c(F)cccc2Cl)C2=C(CC(c3ccc(F)cc3)CC2=O)N1 (stereo not given)	< 4.82
CCCCN(CCCC)CC(O)COc1ccccc1C (stereo not given)	6.06
C=CCn1c(=O)/c(=C/C=C2\C=CN(CC)c3ccccc32)s/c1=C\c1sc(-c2ccccc2)c(-c2ccccc2)[n+]1CC	5.37
CCn1ncc(Cl)c1C(=O)Nc1ccc(C)c([N+](=O)[O-])c1	< 4.82
CCOc1ccccc1Oc1c(C(F)(F)F)oc2c(CN3CCCCCC3)c(O)ccc2c1=O	< 4.82
CN(C)c1ccc(NC(=O)C2CC2c2ccccc2)cc1 (stereo not given)	< 4.82
Cc1cccc(Oc2c(C(F)(F)F)oc3c(CN4CCCC4)c(O)ccc3c2=O)c1	< 4.82
OC(CNCCc1ccccc1)c1ccccc1 (stereo not given)	5.05
CC[n+]1c(/C=C/c2cc(C)n(-c3ccccc3)c2C)sc2ccccc21	< 4.82
Nc1ccc(-c2nc3cc(-c4nc5cc(N)ccc5[nH]4)ccc3[nH]2)cc1	5.64
COc1ccccc1-c1c(C(F)(F)F)oc2c(CN3CCC(C)CC3)c(O)ccc2c1=O	< 4.82
Cc1cccc(CN2CCCn3c4c(c5cc(C)ccc53)CCCC42)c1 (stereo not given)	5.33
CCC(C(=O)Nc1cccc(-c2nc3ccccc3[nH]2)c1)c1ccccc1 (stereo not given)	< 4.82
Cc1cccc(C2(c3cccc(C)c3)CC2C(=O)Nc2ccc([N+](=O)[O-])cc2O)c1 (stereo not given)	5.36
Cc1ccc2c(c1)c1c3n2CCCN(Cc2ccc(C(C)C)cc2)C3CCC1 (stereo not given)	< 4.82
COc1ccc(N2CCN(C(=O)c3ccc(C)cc3)CC2)c([N+](=O)[O-])c1	5.23
CCOc1cc(C2C(C(=O)OCCOc3ccccc3)=C(C)NC3=C2C(=O)CC(c2ccc(Cl)cc2)C3)cc(Cl)c1O (stereo not given)	< 4.82
CC(C)c1ccc(NC(=O)/C=C/c2ccccc2)cc1	5.16

Compound	pEC50
O=c1c(Oc2ccccc2Cl)c(C(F)(F)F)oc2c(CN3CCCCC3)c(O)ccc12	< 4.82
CCOC(=O)C1=C(C)NC2=C(C(=O)CC(c3ccc(OC)cc3)C2)C1c1cccc(F)c1 (stereo not given)	6.13
CC(C)(CO)NCC(O)Cn1c2ccc(Cl)cc2c2cc(Cl)ccc21 (stereo not given)	5.29
OCCCNCC(O)Cn1c2ccccc2c2ccccc21 (stereo not given)	< 4.82
COCCNCC(O)Cn1c2ccc(Cl)cc2c2cc(Cl)ccc21 (stereo not given)	5.63
CCOC(=O)c1cccc(NC(=O)CC2C(=O)N(c3ccc(F)cc3)C(=O)N2Cc2ccccn2)c1 (stereo not given)	< 4.82
CC(C)c1ccc(/C=C/C(=O)Nc2ccc(F)cc2)cc1	5.21
O=S(=O)(/C=C/c1ccccc1)N1CCC(CO)(Cc2cccc(C(F)(F)F)c2)CC1	< 4.82
O=c1c2ccccc2nc(SCc2cn3ccccc3n2)n1Cc1ccco1	< 4.82
CCOc1cc2c(cc1OCC)C(c1ccc(O)cc1)NCC2 (stereo not given)	< 4.82
COc1cc(C2CC(=O)NC3=C2C(=O)CC(c2ccc(F)cc2)C3)c(OC)cc1Br (stereo not given)	< 4.82
Cc1ccc(OCCN(C)C(=O)c2cn(C3CCCCC3)cc(C(=O)NC(C)(C)C)c2=O)cc1	5.03
O=c1c(Oc2ccc3ccccc3c2)c(C(F)(F)F)oc2c(CN3CCCC3)c(O)ccc12	5.27
CC(Nc1cc(N2CCN(C(=O)c3ccccc3)CC2)ccc1[N+](=O)[O-])c1ccccc1 (stereo not given)	6.18
Cc1ccc(NCC(O)Cn2c3ccc(Cl)cc3c3cc(Cl)ccc32)cc1 (stereo not given)	5.28
OC(CNC1CCCCC1)COc1ccc(OCc2ccccc2)cc1 (stereo not given)	< 4.82
COc1ccccc1-c1cc(C(=O)N2CCC(Cc3ccccc3)CC2)c2ccccc2n1	< 4.82
Cc1ccc(OCC(O)CNC2CCCC2)c(C)c1 (stereo not given)	5.19
Cc1cc(C)c(C)c(Oc2cc(NC(=O)c3c(I)cnn3C)cc([N+](=O)[O-])c2)c1	6.28
Clc1ccc(CN2CCN(C3CC4CCC3C4)CC2)cc1 (stereo not given)	< 4.82
CCOc1ccc(C(O)Cn2c(=N)n(CCN3CCCCC3)c3ccccc32)cc1 (stereo not given)	< 4.82
OC(CNC1CCCCC1)Cn1c2ccccc2c2ccccc21 (stereo not given)	5.33
Cc1ccccc1Cn1c(=N)n(CC(O)c2ccc(Cl)c(Cl)c2)c2ccccc21 (stereo not given)	6.39
Cn1nccc1C(=O)Nc1cc(Oc2ccc(Cl)cc2)cc([N+](=O)[O-])c1	< 4.82
